# Data taken from patent publication US20190008878A1, “COMPOSITIONS AND METHOD FOR REDUCING CARDIOTOXICITY” (SignPath Pharma Inc., priority 2017, published 2019).
# “Also recorded” adds a separate entry of the source.
# Key:
# [1] = system: HEK293 cells; settings: 20 μM, 24 h incubation; cited from earlier work
# [2] = Langendorff retrograde perfusion of hearts taken on Day 86 (left ventricle contractility and kinetics); set-up: species or system Hartley guinea pigs; settings: Day 86, ex vivo Langendorff
# Description: In FIG. 5B, on Day 86, the animals were euthanized and the hearts mounted onto a Langendorff retrograde perfusion system. A left ventricular pressure transducer was inserted into the left ventricle and recorded LV contraction amplitude and kinetics.
# In FIG. 6, the pressure developed by the heart on Day 86 of treatment was measured ex-vivo in a Langendorff retrograde perfusion system.
# [3] = chronic sunitinib cardiotoxicity study, two 28-day cycles with or without the invention (ECG, echocardiography, arterial pressure, body weight, troponin); type: in vivo, Hartley guinea pigs; settings: for left ventricular / cardiac hypertrophy (cardiac weight): after 86 days (2 cycles) of treatment
end-systolic / developed left ventricular pressure [2],rate of contraction of the LV ([2]; LV pressure transducer),SMILES,HEK293 cell viability [1],"mean arterial blood pressure ([3]; Day 86, invasive femoral artery catheter, anesthetized animals, sunitinib alone compared with sunitinib plus the invention)",left ventricular / cardiac hypertrophy (cardiac weight) [3],left ventricular / cardiac hypertrophy (cardiac weight) ([3]; listed as Sunitinib),"QTc prolongation ([3]; as of Day 28, increasing steadily until Day 86, sunitinib 10 mg/kg/day, Bazett correction, n=6 per group) [ms]","Troponin I levels ([3]; blood, sunitinib alone compared with sunitinib plus the invention)","LV ejection velocity at the aortic valve (AoVMax) ([3]; cardiac echography, over the treatment)","left ventricular distension (end of diastole and end of systole) ([3]; echocardiography, over the treatment)","left ventricular distension (end of diastole and end of systole) ([3]; echocardiography, over the treatment, listed as Sunitinib)","left-ventricular fractional shortening ([3]; echocardiography, difference between groups significant after 86 days)",Troponin levels compared with intact animals ([3]; intact animals 0.05 ng/mL (data not shown))
,,COc1cc(/C=C/C(=O)CC(=O)/C=C/c2ccc(O)c(OC)c2)ccc1O [curcumin],reduced,,,,,,,,,,
significantly lower,lower,CCN(CC)CCNC(=O)c1c(C)[nH]c(/C=C2\C(=O)Nc3ccc(F)cc32)c1C [sunitinib],,Significantly higher,onset of hypertrophy,caused cardiac hypertrophy,15 to 25,significantly higher,lower; also recorded: gradual decrease,left-ventricular distention,greater LV distension,lower; also recorded: time-dependent loss,significantly greater
